Results taken from patent US20040034067A1, “Novel method of treatment” (priority 1999, published 2004).

Legend:
Type in all cases: cell-based
Gelatinase B mRNA = Gelatinase B mRNA expression in attached human neutrophils; conditions: 1 μM of compound; 4 hours after neutrophil attachment; human neutrophils (FIG. 1B)
Protocol: (FIG. 1B): That the increase in Gelatinase B mRNA expression observed 4 hours after neutrophil attachment was reduced by treatment with 1 μM of Compound (I). Time zero (T0) refers to expression in naive human neutrophils prior to attachment.

MMP-9 release = test: Inhibition of MMP-9 release from human neutrophils (human MMP-9 ELISA); conditions: Neutrophil, RPMI 1640 plus 1% BSA, 4 hours, 4 individuals, 4-parameter logistic curve fit
Protocol: FIG. 2: Inhibition of MMP-9 release.by Compound (I)
Neutrophils were isolated by countercurrent centrifugal elutriation to a purity of at least 98% and were maintained in RPMI 1640 plus 1% BSA. Cells were cultured in 48 well plates and attached to the wells within 1 hour of plating. Compound (I) (referred to as“BRL49653” in FIG. 2) was included from the beginning of the experiment. After 4 hours the media was removed and a human MMP-9 ELISA assay (Amersham) was performed. Data (from 4 different individuals) were not suitable for pooling directly, so for the purposes of the figure they were normalised to percentage of no compound control. Asterisks denote p<0.05 using a paired Student's t-test performed on the raw data prior to normalisation.

PPARgamma mRNA = PPARgamma mRNA expression during human neutrophil attachment to culture dishes; conditions: data taken at 1 and 4 hours; human neutrophils (FIG. 1A)

Molecule | increase in Gelatinase B mRNA expression after neutrophil attachment (Gelatinase B mRNA) | IC50 (MMP-9 release) [nM] | PPARgamma mRNA during human neutrophil attachment (PPARgamma mRNA)
CN(CCOc1ccc(CC2SC(=O)NC2=O)cc1)c1ccccn1 (stereo not drawn) [Compound (I), 5-[4-[2-(N-methyl-N-(2-pyridyl)amino)ethoxy]benzyl]thiazolidine-2,4-dione] | reduced | 10.6 | 
GM-CSF: GM-CSF, treatment that further enhanced PPARgamma mRNA in attached human neutrophils |  |  | further enhanced
